Row | Structure (SMILES) | melting point [°C]
1 | COC(=O)c1cc(I)ccc1N=C=S | 60 to 62
2 | N#Cc1ccc(N(Cc2ccc(OS(N)(=O)=O)c(Cl)c2)n2cnnc2)cc1-c1ccoc1 | 154 to 155
3 | CCOC(=O)c1cc2c(nc1C(=O)OCC)OCC2O (configuration not stated) | 73 to 77
4 | CCCCCS(=O)(=O)NC(=O)/C=C/c1ccc(OCC(C)=O)cc1Oc1ncc(C(F)(F)F)cc1Cl | 187 to 188
5 | Cn1nc(-c2cc(CBr)c(Cl)cc2F)c(Cl)c1C(F)(F)F | 112 to 114
6 | CCCC(Cl)(Cl)C(NC(=O)c1ccc(Cl)cc1)NC(=N[N+](=O)[O-])Nc1cccnc1 (configuration not stated) | 198 to 200
7 | CCOC(=O)Nc1sc(C)c(C#N)c1S(=O)(=O)NC(=S)NC(C)C | 169 to 171
8 | CSc1ccc(C(O)CBr)cc1Cl (configuration not stated) | 86 to 87
9 | O/N=C(\Cl)c1cccc(Cl)c1 | 58 to 60
10 | COc1cc(OC)c(NC(=O)[C@H]2[C@H](c3ccc(S(N)(=O)=O)cc3)C2(C)C)cc1Cl (relative stereo) | 248 to 251
11 | CNC(=O)c1ccc(N2CCN(Cc3cc4c(c(OC)c3)OC(C)C(=O)N4)CC2)c(Cl)c1 (configuration not stated) | 200 to 203
12 | [N-]=[N+]=NC[C@@H]1CN(c2cc(F)c(N3CNC(=O)C3)c(F)c2)C(=O)O1 | 186 to 188
13 | CC(C)S(=O)(=O)C(C#N)=C(Nc1cc(C(F)(F)F)cc(C(F)(F)F)c1)NC1CCC1 | 148 to 150
14 | CCOC(=O)/C=C/c1cnn(C)c1C | 82 to 83
15 | N#Cc1c(Cl)ccc(Cl)c1Cl | 117 to 119
16 | CC1(CN2CCC(N3CCNC3=O)CC2)OCc2ccccc2-n2cccc21 (configuration not stated) | 197 to 199
17 | CCOCc1nc2c(N)nc3c(c2n1CC1(O)CCCC1)NCCC3 | 207 to 208
18 | NC(=O)CN(N=O)N1CCOCC1 | 134 to 136
19 | CCOC(=O)CCCNc1cc(OC)c(OC)cc1C(C)=O | 74 to 76
20 | COC(=O)c1ccc(S(C)(=O)=O)c(C=NO)c1Cl | 126 to 128
21 | CCOC(=O)c1cc(OCC)c(OCC)cc1[N+](=O)[O-] | 53 to 54
22 | CCCCCCCCCC(CCCCCCCCC)N1C(=O)c2ccc3c4cccc5cccc(c6ccc(c2c36)C1=O)c54 | 143 to 144

Row | Structure (SMILES) | melting point [°C]
23 | Cn1c(-c2ccc(-c3cccnc3)cc2)cnc1[C@H](Cc1ccccn1)N(C=O)c1cc2cc(Cl)ccc2o1 | 158 to 160
24 | COc1cc2c(c(Cl)c1Cl)C(=O)C(C)(C)C2 | 142
25 | O=C(O)C(=O)C12CC3CC(CC(O)(C3)C1)C2 | 164 to 166
26 | COc1cccc(F)c1-n1nnc2cc(C(C)(C)C)c(OCc3ncnn3C)nc21 | 116 to 118
27 | Cc1c(-c2cc(F)cc(C(F)(F)F)c2)ccc(N)c1C#N | 96 to 97
28 | Cc1nc(C)c(-c2ccc(OC3SCC(O)C(O)C3O)cn2)s1 (configuration not stated) | 175
29 | Cc1nc(NCCSCc2csc(CN(C)C)n2)[nH]c(=O)c1Cc1cccnc1 | 130 to 131
30 | C1=Nc2c(cnc3ccccc23)OC12CCCCC2 | 164 to 165
31 | CCC(C)Nc1nc(-c2cc(OC)c(OC)c(OC)c2)nc2sc(C#N)c(C)c12 (configuration not stated) | 91 to 93
32 | N#CCN[C@H]1CCc2c(F)cc(F)cc2C1 | 73 to 76
33 | CC1(C)Oc2ccc(C(=O)CN=[N+]=[N-])cc2S1 | 52 to 53
34 | O=C(NC(=O)c1cccc(C(F)(F)F)c1)NC1CN2CCC1CC2 (configuration not stated) | 197 to 200
35 | Nc1ncnc2c1ncn2C1CCC(O)C1O (configuration not stated) | 201 to 202
36 | CO/C(=C\C=C\c1cc2cc(Cl)c(Cl)cc2[nH]1)C(=O)NC1CC(C)(C)N(C)C(C)(C)C1 | 212
37 | O=C(CC1CCCCC1=O)c1ccc(Cl)c(Cl)c1 (configuration not stated) | 78 to 79
38 | N#Cc1cccc(CSc2nnc(-c3ccc4ncc(-c5ccccn5)n4c3)o2)c1 | 192 to 193
39 | CC(C)n1c(=O)n(C(=O)NCC2CCN(CC3(C(=O)O)CCOCC3)CC2)c2ccccc21 | 176
40 | CCOC(=O)C1=C(C)N(C(C)=O)C(c2cscn2)=NC1c1cccc(OC)c1 (configuration not stated) | 130 to 131
41 | COCC1OC(n2cnc3c(N)ncnc32)C(O)C1O (configuration not stated) | 112 to 114
42 | CC1(C(O)=Nc2cc(Cl)cc(Cl)c2)CC(F)C1(C)C(=O)O (configuration not stated) | 122 to 123
43 | O=C1c2ccccc2OS(=O)N1SC(Cl)(Cl)Cl (configuration not stated) | 65 to 67

Further lines, results first:

Row | melting point [°C] | Structure (SMILES)
44 | 78 to 82 | Cc1cc(CN(C(=O)CCl)c2c(C)cccc2C)on1
45 | 76 to 78 | CCSc1cc(C)nc(SCC)c1NC(=O)CCCCCCCCSc1nc2ccccc2[nH]1
46 | 205 to 207 | CC1CCCC(C)N1Cc1ccc(COc2cccc3c2CN(C2CCC(=O)NC2=O)C3=O)cc1 (configuration not stated)
47 | 223 to 225 | O=C(c1c(O)c2ccccc2c2nc3ccccc3nc12)N1CCOCC1
48 | 155 to 167 | CC(C)(C)OC(=O)Nc1ccc(-c2ccc(F)cc2)cc1[N+](=O)[O-]
49 | 198 to 199 | COc1ccc(C2=NN(C3CCN(S(=O)(=O)c4ccccc4F)CC3)C(=O)CC2)cc1OC
50 | 115 to 118 | CC1=Nc2ccccc2C1(C)CCCCCC(=O)O (configuration not stated)
51 | 169 to 170 | N#Cc1cc(S(=O)c2ccccc2)[nH]c1-c1ccc(Cl)cc1 (configuration not stated)
52 | 82 to 83 | Cc1ccccc1CCNC(=O)c1ccc(F)cc1
53 | 154 to 155 | CCOC(=O)/C=C/c1cn(-c2ccccc2)nc1OCc1ccc(OCc2nc(-c3ccccc3)oc2C)cc1
54 | 204 to 206 | O=[N+]([O-])c1cccc(-c2ccnc3ccnn23)c1
55 | 309 to 311 | CC(=O)Nc1cccc(C(c2cccc(NC(C)=O)c2)(C(F)(F)F)C(F)(F)F)c1
56 | 98 to 99 | CC1(C)C=C(c2cccnc2)c2cc(C#N)ccc2O1
57 | 187 to 188 | O=c1c2c(n(-c3ccccc3)c3ncccc13)OC(CBr)C2 (configuration not stated)
58 | 90 to 91 | CCOC(=O)CCc1cn(-c2ccc([N+](=O)[O-])cn2)nc1C(C)C
59 | 104 to 105 | CCOC(=O)C(=CNc1ccccc1[N+](=O)[O-])C(=O)OCC
60 | 219 to 220 | CCOC(=O)Nc1ccc2sc(C)cc(=O)c2c1
61 | 200 to 205 | O=C(O)CCC(=O)N[C@@H](Cc1ccc(-c2ccccc2)cc1)C(=O)NCCCCNc1ncccn1
62 | > 260 | Cc1nc2ccc(C(=O)O)nc2n1Cc1ccc(Cl)cc1Cl
63 | 174 | CC(=O)N(C(C)=O)c1cnn(-c2cccc(C(F)(F)F)c2)c(=O)c1-c1cccc(C(F)(F)F)c1

Row | melting point [°C] | Structure (SMILES)
64 | 95 to 97 | Cc1c(Cl)cccc1N=Cc1ccccc1O
65 | 301 to 302 | O=C(O)c1ccc(-c2ncc(-c3ccc(F)cc3F)o2)cc1
66 | 270 to 271 | N#CN=C(Nc1ccccc1)Nc1ccc(C#N)cc1O
67 | 135 to 136 | COc1ccc(OC)c(Sc2ncccc2C(=O)NCC23CC4CC(CC(C4)C2)C3)c1
68 | 70 | CCN(c1nc(C)cc(C(=O)c2ccc(F)cc2)n1)c1ccc(C(C)C)cc1Br
69 | 104 to 108 | CCc1ccc(S(N)(=O)=O)cc1
70 | 112 | Cc1nn(-c2cc(OC(F)F)n(C)n2)c(-c2ccc(Cl)cc2)c1CC(=O)O
71 | 186 to 187 | Cc1[nH]cnc1CSCCNc1[nH]cc(CCc2ccccc2)c1[N+](=O)[O-]
72 | 145 to 146 | NC(=O)C(CCc1ccccn1)(c1ccccc1)c1ccccc1
73 | 275 to 277 | NC(=S)NN=Cc1c2ccccc2c(C=NNC(N)=S)c2ccccc12
74 | 159 to 160 | ON=C(CCN1CCN(c2ccccn2)CC1)c1ccc(F)cc1
75 | 183 to 185 | CCOCCc1c(-c2ccc(Cl)cc2)nc(N)n2ncnc12
76 | 161 to 163 | CC(c1ccncc1)C(O)(Cn1cncn1)c1ccc(F)cc1F (configuration not stated)
77 | 157 to 158 | O=C(O)Cc1ccc(CCNC(=O)c2ccccc2)cc1
78 | 99 to 101 | O=C1C[C@@H](C(=O)O)N(C(=O)OCc2ccccc2)C1
79 | 82 to 83 | CCOC(=O)c1ccc(N)c(Cl)c1
80 | 245 to 246 | Cc1cn2c(=O)c3c(F)cccc3nc2s1
81 | 75 to 76 | CCOC(=O)C=Cc1ccc(OCCCCOCc2ccccc2)nc1NC(=O)C(C)(C)C
82 | 146 to 147 | CN1CC(CCN2C(=O)c3ccccc3C2=O)Oc2ncccc2C1=O (configuration not stated)
83 | 210 to 212 | Cn1cc(C(=O)O)cc1C(=O)c1ccccc1

Row | melting point [°C] | Structure (SMILES)
84 | 194 to 197 | N#Cc1ccc(C(=C2CCOC2=O)n2ccnc2)cc1
85 | 143 to 144 | CCOC(=O)C(=O)c1oc(-n2cnc3ccccc32)nc1-c1ccc(Cl)cc1
86 | 182 to 183 | COc1ccc(C2Sc3c(ccc4ccccc34)N(CCN(C)C)C(=O)C2OC(=O)c2ccc(OC)c(OC)c2)cc1 (configuration not stated)
87 | 193 to 196 | O=c1[nH]c2cc(Cl)ccc2c(=O)c(-c2ccccc2)c1O
88 | 78 to 82 | CCn1c(=O)n(Cc2ccccc2)c(=O)c2c(Cl)cc(Cl)cc21
89 | 159 to 160 | CC1(C)NC(=O)c2ccccc21
90 | 280 | CCc1cccc(C)c1CNc1cc(C(=O)N(C)C)nc2c(CO)c(C)[nH]c12
91 | 259 | O=[N+]([O-])c1ccc2c(c1)S(=O)(=O)c1ccccc1-2
92 | 56 to 57 | CCCCCCCCCCCCOc1ccc(C(=O)OC)cc1
93 | 203 to 208 | COC(=O)/C=C/n1cnc2c(OC)cccc2c1=O
94 | 239 to 241 | CC(=NNC(=O)c1ccncc1)c1ccc2nnn(Cc3ccc4ncccc4c3)c2n1
95 | 137 | OCc1nc2cc(CN3CCN(C(c4ccccc4)c4ccccc4)CC3)ccc2[nH]1
96 | 196 to 199 | CC(C)[C@H](NC(=O)OCc1ccccc1)C(=O)NC(Cc1ccccc1)C(O)C(Cc1ccccc1)NC(=O)[C@@H](NC(=O)c1cccnc1)C(C)C (some centres not stated)
97 | 185 to 186 | Cc1cc(OCc2cnc(-c3ccc(C(F)(F)F)nc3)nc2C2CC2)ccc1OC(C)(C)C(=O)O
98 | 122 to 124 | CCOC(=O)C(=O)c1csc(NC(c2ccccc2F)c2ccccc2F)n1
99 | 45 | CCCCCCCCCCCC(=O)OCc1ccccc1-c1nc(-c2cccc(OC)c2)n[nH]1
100 | 343 | O=C(O)c1cccc2ccc3c4ccccc4[nH]c3c12
101 | 164 to 165 | CCCCNC(=O)Nc1ccc(-c2ccncc2)c(C)n1
102 | 242 | O=c1c2ccccc2oc2cc(O)ccc12

— a melting point compilation (Tetko et al.; mined from patent text by program, amines drawn as free bases though some values may be those of a salt)
